# Reference: patent US20090232731A1, “Cationic Liposomal Preparations for the Treatment of Rheumatoid Arthritis” (priority 2006, published 2009)
# Assays:
# [1] = tested on: collagen induced arthritis; test: Collagen induced arthritis in DBA/1 mice, clinical arthritis score (EndoMTX); assay type: in vivo; conditions: day 34; i.v. 3 times a week from day 15, 5.0 mg/kg methotrexate where loaded
# Protocol: Male DBA/1 mice with an age of ten weeks at arrival were purchased from Taconic Europe and housed in isolated cages under save environmental conditions (Five mice per cage, 22° C., 30-70% humidity and 12 h light/dark cycle) with food and water ad libitum. Experimental design was reviewed and approved by local government.
# Mice were assigned to the experimental groups acclimated at least 7 days before induction of collagen induced arthritis. Animals were anesthetized intraperitoneally (i.p.) with a mixture of Xylazin and Ketamin. Each animal obtained 4 ml/kg as application volume. 0.5 ml Rompun (20 mg/ml Xylazin) and 1 ml Ketamin (100 mg/ml Ketamin) were mixed (1:2) and diluted 1:4 in 4.5 ml 0.9% NaCl. 2. For the Collagen Type II-CFA emulsions, Collagen (bovine, 4 mg/ml) was mixed 1:1 with CFA by repeated passage through a flexible tube connecting two 1-ml syringes (syringe-syringe-method). This mixture was kept on ice and will be applied within 4 hours after preparation. For the immunization 100 μl Collagen/CFA-emulsion was injected subcutaneously at the base of the tail. The injection of Collagen/CFA-emulsion was done once on day 0 and once as a booster immunization on day 21. After two weeks the animals were controlled for symptoms of collagen induced arthritis (CIA) by joint scoring three times a week. […]
# [2] = tested on: collagen induced arthritis; test: Collagen induced arthritis in B10RIII mice, clinical arthritis score (EndoTAG-1); assay type: in vivo; conditions: endpoint day 11; i.v. every second day; paclitaxel 2.56 mg/kg, Enbrel 10 mg/kg
Compound,order of antiarthritic efficacy (mean clinical arthritis score) [1],order of antiarthritic efficacy (mean clinical arthritis score) [2]
"CN(Cc1cnc2nc(N)nc(N)c2n1)c1ccc(C(=O)N[C@@H](CCC(=O)O)C(=O)O)cc1 [MTX, N-[4-[[(2,4-diamino-6-pteridinyl)methyl]methylamino]benzoyl]-L-glutamic acid]",EndoMTX>EndoMTX placebo>MTX,–
Enbrel,–,Enbrel>EndoTAG-1>EndoTAG-1 placebo and Taxol®
